This assay in a line: Tested in vitro for inhibition of Serotonin uptake. It counts as functional.

Compound `FC(F)(F)c1ccc(OC2(c3ccccc3)CCNCC2)cc1` gave an Activity of 580 nM.
Turning to `CNCCC(Oc1ccc(C(F)(F)F)cc1)c1ccccc1` (configuration not stated), the Activity amounted to 700 nM.
